These results are taken from ChEMBL document CHEMBL1141509, “Development of pyridopyrimidines as potent Akt1/2 inhibitors” (Bioorg Med Chem Lett, 2008).

Test [1] addresses T1, RAC-alpha serine/threonine-protein kinase (Homo sapiens, UniProt P31749). In words: Inhibition of Akt1.
In test [2] the target is T2, RAC-beta serine/threonine-protein kinase (Homo sapiens, UniProt P31751). The experiment in a line: Inhibition of Akt2.
The target in test [3] is T2, RAC-beta serine/threonine-protein kinase. The experiment in a line: Inhibition of Akt2 in human C33A cells by immunoprecipitation kinase assay. Format: cell-based, C-33-A.
The target in test [4] is T1, RAC-alpha serine/threonine-protein kinase. In words: Inhibition of human Akt1 in human C33A cells by immunoprecipitation kinase assay. The class given is cell-based, C-33-A.
Test [5] has as its target T3, Serine/threonine-protein kinase Sgk1 (Homo sapiens, UniProt O00141).
T3 sequence (O00141 whole entry): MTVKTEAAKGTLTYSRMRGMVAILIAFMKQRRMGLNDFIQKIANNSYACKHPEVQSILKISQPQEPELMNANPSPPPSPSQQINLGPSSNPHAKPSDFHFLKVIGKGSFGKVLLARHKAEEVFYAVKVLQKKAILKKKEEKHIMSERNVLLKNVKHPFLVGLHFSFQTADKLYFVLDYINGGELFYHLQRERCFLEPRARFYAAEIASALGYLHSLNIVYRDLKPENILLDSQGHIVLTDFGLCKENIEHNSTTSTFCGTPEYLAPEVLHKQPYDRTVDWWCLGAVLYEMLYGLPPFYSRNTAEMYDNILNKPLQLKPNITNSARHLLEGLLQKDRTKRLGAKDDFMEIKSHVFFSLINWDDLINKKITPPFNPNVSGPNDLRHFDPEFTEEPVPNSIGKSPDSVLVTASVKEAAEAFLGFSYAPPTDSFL
The experiment in a line: Inhibition of SGK.

A short description of test [6]: Inhibition of PKA.
The target in test [7] is RAC-gamma serine/threonine-protein kinase (Homo sapiens, UniProt Q9Y243). The experiment in a line: Inhibition of Akt3.
Test [8] can be described thus: Inhibition of PKC.

T2 sequence (P31751 whole entry): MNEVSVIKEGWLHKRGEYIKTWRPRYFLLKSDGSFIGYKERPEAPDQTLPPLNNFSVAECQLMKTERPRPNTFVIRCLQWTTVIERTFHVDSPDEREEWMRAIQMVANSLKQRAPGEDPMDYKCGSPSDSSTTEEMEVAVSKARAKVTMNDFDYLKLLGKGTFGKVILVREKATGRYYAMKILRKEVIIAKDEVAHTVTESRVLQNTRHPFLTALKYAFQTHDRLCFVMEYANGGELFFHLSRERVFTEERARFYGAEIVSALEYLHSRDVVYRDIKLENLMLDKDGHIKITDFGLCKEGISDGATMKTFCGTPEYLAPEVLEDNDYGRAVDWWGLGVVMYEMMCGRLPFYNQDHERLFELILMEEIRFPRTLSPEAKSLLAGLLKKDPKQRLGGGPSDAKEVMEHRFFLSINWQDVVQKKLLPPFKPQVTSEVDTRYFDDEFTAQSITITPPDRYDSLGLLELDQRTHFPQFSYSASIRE
T1 sequence (P31749 whole entry): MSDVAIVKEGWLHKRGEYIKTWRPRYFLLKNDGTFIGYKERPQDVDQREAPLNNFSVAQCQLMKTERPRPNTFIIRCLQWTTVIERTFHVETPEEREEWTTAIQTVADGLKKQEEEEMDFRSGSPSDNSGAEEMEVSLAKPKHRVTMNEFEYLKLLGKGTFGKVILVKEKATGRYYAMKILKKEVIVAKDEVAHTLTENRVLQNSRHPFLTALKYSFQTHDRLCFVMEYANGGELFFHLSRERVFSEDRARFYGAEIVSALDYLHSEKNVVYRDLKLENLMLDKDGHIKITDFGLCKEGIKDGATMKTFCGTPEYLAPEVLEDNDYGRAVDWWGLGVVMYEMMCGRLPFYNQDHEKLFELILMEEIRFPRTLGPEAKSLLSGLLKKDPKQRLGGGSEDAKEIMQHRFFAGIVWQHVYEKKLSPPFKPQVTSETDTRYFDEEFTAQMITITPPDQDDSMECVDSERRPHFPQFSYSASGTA
Chain of RAC-gamma serine/threonine-protein kinase (Q9Y243 whole entry): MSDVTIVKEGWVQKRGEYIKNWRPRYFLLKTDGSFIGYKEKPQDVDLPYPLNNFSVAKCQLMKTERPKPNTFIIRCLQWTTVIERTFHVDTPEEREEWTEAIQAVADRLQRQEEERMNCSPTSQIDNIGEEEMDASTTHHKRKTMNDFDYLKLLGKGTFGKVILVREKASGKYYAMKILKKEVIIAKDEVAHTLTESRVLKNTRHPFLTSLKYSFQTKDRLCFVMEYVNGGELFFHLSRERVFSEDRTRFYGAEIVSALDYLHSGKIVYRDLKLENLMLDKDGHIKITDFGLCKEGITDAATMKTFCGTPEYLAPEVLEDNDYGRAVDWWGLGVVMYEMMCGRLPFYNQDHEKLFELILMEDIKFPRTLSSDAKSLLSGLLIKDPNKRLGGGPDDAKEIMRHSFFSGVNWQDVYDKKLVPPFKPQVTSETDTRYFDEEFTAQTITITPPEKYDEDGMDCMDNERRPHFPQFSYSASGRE

What is called IC50 is the midpoint of a concentration-inhibition curve. Read a high IC50 as weaker potency in that assay. Take `CSc1ncc2cc(-c3ccccc3)c(-c3ccc(CNCCCN4CCN(C)CC4)cc3)nc2n1`: the IC50 is 765 nM in test [1] and 8920 nM in test [2].
In the same order, the values of `CSc1ncc2cc(-c3ccccc3)c(-c3ccc(CNCCc4c[nH]cn4)cc3)nc2n1` are 99 nM and 1240 nM.
`CSc1ncc2cc(-c3ccccc3)c(-c3ccc(CNCCc4nc[nH]n4)cc3)nc2n1`: the IC50 was determined as 139 nM in test [1] and 1710 nM in test [2].
In the same order, the values of `CSc1ncc2cc(-c3ccccc3)c(-c3ccc(CNCCc4nccs4)cc3)nc2n1` are 198 nM and 1380 nM.
In the same order, the values of `CSc1ncc2cc(-c3ccccc3)c(-c3ccc(CNCCCn4ccnc4)cc3)nc2n1` are 137 nM and 1510 nM.
In the same order, the values of `CSc1ncc2cc(-c3ccccc3)c(-c3ccc(CN(C)CCc4cn[nH]c4)cc3)nc2n1` are 1520 nM and 17500 nM.
On to `CSc1ncc2cc(-c3ccccc3)c(-c3ccc(CNCCc4nnc(-c5ccccc5)[nH]4)cc3)nc2n1`, for which the values for the IC50 in test [1] and in test [2] were 63 nM and 494 nM, respectively.
In the case of `CSc1ncc2cc(-c3ccccc3)c(-c3ccc(CNCCc4nnc(N)s4)cc3)nc2n1`, the IC50 worked out at 46 nM in test [1] and 529 nM in test [2].
As for `CSc1ncc2cc(-c3ccccc3)c(-c3ccc(CNCCC(=O)c4ccccc4N)cc3)nc2n1`, the values for the IC50 in test [1] and in test [2] were 15 nM and 90 nM, respectively.
In the case of `CSc1ncc2cc(-c3ccccc3)c(-c3ccc(CN4CCC(C(N)=O)CC4)cc3)nc2n1`, the IC50 worked out at 29 nM in test [1], 9260 nM in test [3], 560 nM in test [4] and 928 nM in test [2].
In the same order, the values of `CCNC(=O)NC1CCN(Cc2ccc(-c3nc4nc(SC)ncc4cc3-c3ccccc3)cc2)CC1` are 81 nM, 5300 nM, 795 nM and 1910 nM.
`CSc1ncc2cc(-c3ccccc3)c(-c3ccc(CN4CCC(C(=O)NCCC(N)=O)CC4)cc3)nc2n1`: the values for the IC50 in test [1] and in test [2] were 91 nM and 2110 nM, respectively.
With `CSc1ncc2cc(-c3ccccc3)c(-c3ccc(CN4CCC(NC(=O)CNC(C)=O)CC4)cc3)nc2n1`, the IC50 is 286 nM in test [1] and 5130 nM in test [2].
On to `CSc1ncc2cc(-c3ccccc3)c(-c3ccc(CN4CCC(C(=O)Nc5ccncc5)CC4)cc3)nc2n1`, for which the IC50 in test [1] is 9.7 nM; in test [3] it was 1130 nM; in test [4], 133 nM; in test [2], 301 nM.
For `CNc1ncc2cc(-c3ccccc3)c(-c3ccc(CN4CCC(c5nnc(-c6ccccn6)[nH]5)CC4)cc3)nc2n1`, the IC50 is 6 nM in test [1]; 899 nM in test [3]; over 50000 nM in test [5]; 20.3 nM in test [4]; over 50000 nM in test [6]; 2470 nM in test [7]. Besides, the IC50 in test [8] is over 50000 nM; in test [2], 94.4 nM.
For the molecule `Nc1ncnc2nc(-c3ccc(CN4CCC(c5nc6ccc(F)cc6[nH]5)CC4)cc3)c(-c3ccccc3)cc12`, the IC50 in test [3] worked out at 1810 nM; in test [2] it was 239 nM.
For `Nc1ncnc2nc(-c3ccc(CN4CCC(n5ncc6c(N)ncnc65)CC4)cc3)c(-c3ccccc3)cc12`, the IC50 in test [1] worked out at 14 nM; in test [3], 468 nM; in test [4], 295 nM; in test [2] it was 99 nM.
As to `CSc1ncc2cc(-c3ccccc3)c(-c3ccc(CN4CCC(n5ncc6c(N)ncnc65)CC4)cc3)nc2n1`, the IC50 was 4 nM in test [1], 828 nM in test [3], 60 nM in test [4] and 44 nM in test [2].
In the same order, the values of `CSc1ncc2cc(-c3ccccc3)c(-c3ccc(CN4CCC(c5nnc(-c6ccccn6)[nH]5)CC4)cc3)nc2n1` are 3.8 nM, 589 nM, 9.3 nM and 26 nM.
On to `CSc1ncc2cc(-c3ccccc3)c(-c3ccc(CNCCC(N)=O)cc3)nc2n1`, for which the IC50 in test [1] came to 226 nM; in test [2], 1300 nM.
Take `CSc1ncc2cc(-c3ccccc3)c(-c3ccc(CNCCc4cccnc4)cc3)nc2n1`: the IC50 worked out at 90 nM in test [1] and 1160 nM in test [2].
In the same order, the values of `CSc1ncc2cc(-c3ccccc3)c(-c3ccc(CNCCc4nnc(C)[nH]4)cc3)nc2n1` are 162 nM and 1790 nM.
Consider `CSc1ncc2cc(-c3ccccc3)c(-c3ccc(CN4CCC(c5nnc(N)s5)CC4)cc3)nc2n1`, for which the IC50 in test [1] came to 8.5 nM; in test [3] it was 1570 nM; in test [4], 79 nM; in test [2] it was 267 nM.
In the same order, the values of `COc1ncc2cc(-c3ccccc3)c(-c3ccc(CN4CCC(c5nnc(-c6ccccn6)[nH]5)CC4)cc3)nc2n1` are 23.6 nM, 2300 nM, 42.6 nM and 107 nM.
`CSc1ncc2cc(-c3ccccc3)c(-c3ccc(CN4CCC(c5nc(-c6cccnc6)no5)CC4)cc3)nc2n1`: the results for the IC50 in test [1] and in test [2] were 64 nM and 1300 nM, respectively.
Consider `CSc1ncc2cc(-c3ccccc3)c(-c3ccc(CN4CCC(c5cc(-c6ccncc6)[nH]n5)CC4)cc3)nc2n1`, for which the IC50 in test [1] was 4.5 nM; in test [3] it was 635 nM; in test [4], 85 nM; in test [2], 57 nM.
In the same order, the values of `N#Cc1ncc2cc(-c3ccccc3)c(-c3ccc(CN4CCC(c5nnc(-c6ccccn6)[nH]5)CC4)cc3)nc2n1` are 24 nM, 586 nM, 100 nM and 59 nM.
In the same order, the values of `NC(=O)c1ncc2cc(-c3ccccc3)c(-c3ccc(CN4CCC(c5nnc(-c6ccccn6)[nH]5)CC4)cc3)nc2n1` are 6.2 nM, 3710 nM, 96.4 nM and 35 nM.
